In ChEMBL document CHEMBL1158225, “Antiplatelet flavonoids from seeds of Psoralea corylifolia” (J Nat Prod, 1996):
The source made the active and inactive calls. No cut-off for these calls is given here.

Experiments:
Type in all cases: functional, cell-based
Conditions in all cases: Oryctolagus cuniculus
[1] = (§1) Antiplatelet activity against rabbit platelet assessed as inhibition of platelet-activating factor-induced platelet aggregation preincubated for 3 mins by turbidimetric method
Platelet [2] = experiment: Antiplatelet activity against rabbit platelet assessed as inhibition of arachidonic acid-induced platelet aggregation at 300 uM preincubated for 3 mins by turbidimetric method
Platelet [3] = experiment: Antiplatelet activity against rabbit platelet assessed as inhibition of platelet-activating factor-induced platelet aggregation at 300 uM preincubated for 3 mins by turbidimetric method
Platelet [4] = experiment: Antiplatelet activity against rabbit platelet assessed as inhibition of collagen-induced platelet aggregation at 300 uM preincubated for 3 mins by turbidimetric method
[5] = Antiplatelet activity against rabbit platelet assessed as inhibition of collagen-induced platelet aggregation preincubated for 3 mins by turbidimetric method
[6] = Antiplatelet activity against rabbit platelet assessed as inhibition of arachidonic acid-induced platelet aggregation preincubated for 3 mins by turbidimetric method
Platelet [7] = experiment: as §1

IC50 [1] | IC50 [5] | IC50 [6] | Structure (SMILES) | further results
– | 30.5 µM | – | CC(=O)Oc1ccccc1C(=O)O [ASPIRIN] | –
41.6 µM | 65.1 µM | 0.5 µM | CC(C)=CCc1c(O)ccc(C(=O)/C=C/c2ccc(O)cc2)c1O [ISOBAVACHALCONE] | –

The remaining lines, values behind:

Structure (SMILES) | IC50 [1] | IC50 [5] | IC50 [6] | further results
CCCCCCCCCCCCCCCCCCNC(=O)OCC(COP(=O)([O-])OCC[n+]1ccsc1)OC (configuration not stated) | 1.1 µM | – | – | –
CC(C)=CCc1cc2c(cc1O)O[C@H](c1ccc(O)cc1)CC2=O | – | – | – | Activity (Platelet [2]): inactive; Activity (Platelet [3]): inactive; Activity (Platelet [4]): inactive
CC(C)=CCc1cc(-c2coc3cc(O)ccc3c2=O)ccc1O [NEOBAVAISOFLAVONE] | 2.5 µM | 62.4 µM | 7.8 µM | Activity (Platelet [7]): Dose-dependent effect
